Experimental findings from PubChem BioAssay (NCI) are described below.

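Five concentrations, 48 hours, 96-well plates. GI50: concentration for 50% inhibition of growth. TGI is the concentration that stops growth completely.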 Where only a bound is given, the exact number is not on record here.

Holding throughout (test): inhibition of tumour cell growth, NCI panel, 48 h
Assay [1] concerns CAKI-1 renal.
The subject of assay [2] is HS 578T breast.
The subject of assay [3] is LOX IMVI melanoma.
In assay [4] the test system is MDA-MB-435.
The subject of assay [5] is MDA-N.
Assay [6] concerns NCI-H226 lung.
Assay [7] deals with NCI/ADR-RES ovarian.
The test system of assay [8] is PC-3 prostate.
The test system of assay [9] is OVCAR-4 ovarian.
Assay [10] deals with SNB-75 CNS.

As for `O=c1cc(-c2ccc(O)cc2)n(C2CC2)c2ccccc12`, the TGI came to 20.8 µM in assay [1]; 24.8 µM in assay [2]; 16.7 µM in assay [3]; 17.5 µM in [4]; 26.2 µM in assay [5]; 16.4 µM in assay [6]. The values for the TGI in [7] and in assay [8] were 38.8 µM and 92.3 µM, respectively.

As to `CSc1nc(NC2OCC(OC(C)=O)C(OC(C)=O)C2OC(C)=O)c(N=C(C)C(C)=O)c(=O)[nH]1` (stereo unspecified), the TGI in assay [1], in assay [3], in [9] and in assay [10] was more than 100 µM each time.

In the case of `O=C(C=P(c1ccccc1)(c1ccccc1)c1ccccc1)c1cccc(-c2cccc([N+](=O)[O-])c2)c1`, the TGI in assay [1] is 6.26 µM; in [2], more than 100 µM; in assay [3], 9.63 µM; in assay [5] it was 6.95 µM; in assay [7] it was more than 100 µM; in [9], 15.5 µM. Further, the TGI worked out at 20.9 µM in assay [8] and 7.62 µM in assay [10].

Regarding `O=C1N(c2ccccc2)C2(c3ccccc3)CC3CCCC13S2` (stereo unspecified), the TGI in assay [1], in assay [2], in assay [3], in assay [4], in [6] and in [7] was more than 100 µM each time. The figures for the TGI in assay [9] and in assay [8] were more than 100 µM and 90.3 µM, respectively.

Regarding `O=C(C[C@H](NC(=O)OCc1ccccc1)C(=O)NC1Cc2ccccc2OC1=O)OCc1ccccc1` (stereo partly specified), the TGI in assay [1], in assay [2], in assay [4], in [5], in assay [6] and in [7] was more than 100 µM each time. The results for the TGI in assay [8] and in assay [10] were 70.2 µM and more than 100 µM, respectively.

As to `N#Cc1c(NC(=S)Nc2ccc(Cl)cc2)sc2c1CCCC2`, the TGI in assay [1], in [3], in assay [4], in [5], in assay [6] and in [7] was more than 100 µM throughout. The TGI in assay [9], in assay [8] and in assay [10] was more than 100 µM throughout.

Turning to `OC1(c2ccc(Cl)cc2)c2c(ccc3c2OCO3)C2=NCCN21` (stereo unspecified), the TGI in assay [1] is more than 100 µM; in [2], 76.7 µM; in assay [3] it was more than 100 µM; in assay [4], more than 100 µM; in [5] it was 87.4 µM; in [7], more than 100 µM. Moreover, the figures for the TGI in assay [9], in [8] and in [10] were more than 100 µM, more than 100 µM and 59 µM, respectively.

Consider `O=C(O)c1cc(=O)[nH]c(SCc2ccccc2)n1`, for which the TGI in assay [1], in assay [3], in assay [4], in [5], in [6] and in [7] was more than 100 µM in each case. The TGI in [9], in assay [8] and in assay [10] was more than 100 µM in each case.

In the case of `CC(C)CCC[C@@H](C)[C@H]1CC[C@H]2[C@@H]3CC[C@H]4C[C@H](N)CC[C@]4(C)[C@H]3CC[C@]12C`, the TGI is 59 µM in assay [1]; 76.3 µM in assay [2]; 83 µM in [3]; more than 100 µM in [4]; more than 100 µM in assay [5]; 49.2 µM in [6]. Besides, the TGI in assay [7] stood at 95.3 µM; in assay [9] it was 65.4 µM; in [8], 20.2 µM; in assay [10], 57.1 µM.

As to `CCN(CC)CCCC(C)Nc1ccnc2cc3ccccc3cc12` (stereo unspecified), the TGI in assay [1] was 42.2 µM; in assay [2], more than 100 µM; in assay [3], more than 100 µM; in [4], 24.2 µM; in assay [6], more than 100 µM; in assay [7], more than 100 µM. Also, the TGI in assay [9] is 7.92 µM; in assay [8], more than 100 µM; in assay [10] it was 20.1 µM.

`Cc1nc2c(n1C)C(=O)c1nc(CBr)[nH]c(=O)c1C2=O` returned a TGI in [3] of more than 100 µM.

In the case of `N/C(=N\S(=O)(=O)c1cccc2nsnc12)Nc1ccc(Cl)cc1`, the TGI in [2] is 68.9 µM; in [3], 85.8 µM; in assay [5] it was more than 100 µM; in assay [6], more than 100 µM; in assay [7], more than 100 µM; in assay [9], more than 100 µM. Besides, the figures for the TGI in assay [8] and in assay [10] were 55 µM and more than 100 µM, respectively.

In the case of `CC(C)(C)OC(=O)NCC(=O)NC1c2ccsc2/C(=N/O)[C@H]1O` (stereo partly specified), the TGI in [1], in assay [3], in [4], in assay [5], in assay [6] and in assay [7] was more than 100 µM each time. For the same molecule, the TGI in assay [9] and in [8] was more than 100 µM each time.

For the molecule `CCCCCCCCCCCCCCCc1ccc(OCC(O)CO)cc1` (stereo unspecified), the TGI was more than 100 µM in [1]; 32.1 µM in [3]; 58.5 µM in assay [6]; 40.8 µM in assay [9]; 72 µM in [10].

For the molecule `COc1ccc(C2CC(c3cccc(Nc4ccncc4)c3)=NN2c2ccc(Cl)cc2)cc1` (stereo unspecified), the GI50 was 1.32 µM in [1]; 1.77 µM in assay [2]; 1660 nM in [3]; 1.63 µM in assay [4]; 2.27 µM in assay [6]; 1.73 µM in assay [7]. Moreover, the GI50 in assay [9] was 1.58 µM; in assay [8] it was 1.44 µM; in [10], 1410 nM. Besides, the TGI in [1] stood at 2.64 µM; in assay [2], 3.68 µM; in assay [3] it was 3.03 µM; in [4], 3.05 µM; in assay [6] it was 7.73 µM; in assay [7], 3.3 µM. The TGI in [9] came out at 3.06 µM; in assay [8], 2.96 µM; in assay [10] it was 3.01 µM.

As for `O=Cc1cc([N+](=O)[O-])no1`, the TGI in assay [1] was more than 100 µM; in assay [2] it was more than 100 µM; in assay [3] it was more than 100 µM; in assay [4], 29.9 µM; in assay [5] it was 52.6 µM; in assay [6] it was more than 100 µM. Also, the TGI is more than 100 µM in assay [7], 35.8 µM in [9], more than 100 µM in assay [8] and more than 100 µM in assay [10].

In the case of `CS(=O)(=O)OC1CN2CCC1CC2` (stereo unspecified), the TGI in assay [1], in assay [2], in [3], in [4], in assay [5] and in [7] was more than 100 µM each time. In addition, the TGI in [9], in assay [8] and in assay [10] was more than 100 µM in each case.

Regarding `Cc1cccc2cc3c(ccc4ccccc43)c[n+]12`, the TGI in assay [2] was 24.6 µM; in assay [3], more than 100 µM; in assay [4] it was more than 100 µM; in [5], more than 100 µM; in [7], more than 100 µM; in assay [8] it was more than 100 µM. The TGI in assay [10] is 21.8 µM.

As to `CCN1C=C/C(=C\C=C/c2cc[n+](CC)c3ccccc23)c2ccccc21`, the TGI was 24.6 µM in [2]; 14.2 µM in assay [4]; 19.3 µM in assay [5]; 16 µM in assay [6]; more than 100 µM in [7]; 16.9 µM in assay [9]. Besides, the TGI in [8] turned out to be 17.3 µM; in assay [10], 7.57 µM.

In the case of `CN(c1cc2ncc(=O)[nH]c2cc1NC(N)=NCc1ccc(Cl)cc1)C1CCCCC1`, the GI50 in assay [1] was 7.47 µM; in [2] it was 6.53 µM; in [3] it was 1750 nM; in assay [4], 6.34 µM; in assay [6] it was 8.1 µM; in assay [7] it was 23.1 µM. In addition, the GI50 in assay [9] was 6.21 µM; in [8], 5.94 µM; in assay [10] it was 2870 nM. Besides, the TGI was determined as 14.5 µM in assay [1]; 16 µM in [2]; 5.88 µM in assay [3]; 12.8 µM in assay [4]; 18 µM in assay [6]; 50 µM in assay [7]. Moreover, the TGI in assay [9] turned out to be 17.2 µM; in assay [8], 12.5 µM; in [10], 10.1 µM.

Turning to `Nc1cc2c(nnn2C2OC(COCc3ccccc3)C(OCc3ccccc3)C2OCc2ccccc2)c(=O)[nH]1` (stereo unspecified), the TGI in assay [1] was more than 100 µM; in assay [2], more than 100 µM; in [3], 53.2 µM; in assay [4] it was 40.4 µM; in assay [5], 34 µM; in assay [6], 53.7 µM. In addition, the TGI in assay [7], in assay [9], in [8] and in [10] was more than 100 µM each time.

`CCCCCCNC(=O)c1cc(CCc2cc(O)ccc2O)ccc1O`: the TGI in assay [1] was found to be 13.6 µM; in assay [2], 26.4 µM; in assay [3], 19.3 µM; in assay [4], 19.6 µM; in assay [5], 9.54 µM; in assay [6] it was 19.8 µM. For the same molecule, the TGI in assay [7] was more than 67.7 µM; in [9], 6.75 µM; in [8], 6.49 µM; in [10], 14.4 µM.

For the molecule `O=S1(=O)C(c2ccccc2)C(N2CCCCC2)C1C1CC2c3ccccc3C1c1ccccc12` (stereo unspecified), the TGI in assay [1], in assay [2], in assay [3], in assay [4], in [5] and in assay [6] was more than 100 µM each time. In addition, the TGI in assay [7], in assay [9], in assay [8] and in assay [10] was more than 100 µM in each case.

On to `CO/C=C(/C(=O)OC)c1ccccc1[C@@H]1CC1c1cccc(F)c1` (stereo partly specified), for which the TGI is 70.4 µM in [1]; more than 100 µM in assay [2]; 44 µM in assay [4]; 91.2 µM in assay [5]; more than 100 µM in [6]; 91.8 µM in assay [7]. Moreover, the TGI in [9] was 96.7 µM; in assay [8], more than 100 µM.

In the case of `CCOC(=O)C[C@@H]1C2(C=C[C@@]13CO3)OCC(C)(C)CO2`, the TGI in [1], in [2], in assay [3], in assay [4], in [5] and in [6] was more than 100 µM throughout. The TGI was more than 100 µM in assay [7], 97.4 µM in [9], more than 100 µM in assay [8] and more than 100 µM in assay [10].

As for `Cc1ccc(NP(=O)(Oc2ccccc2)N(CCCl)CCCl)cc1` (stereo unspecified), the TGI in [1], in assay [6], in [9] and in assay [10] was more than 100 µM in each case.
